{
  "source": "patent US20120190719A1",
  "about": "“METHODS OF TREATING MOTOR DISORDERS WITH ALPHA-2B ANDRENERGIC RECEPTOR AGONISTS” (ALLERGAN, INC., priority 2009, published 2012)",
  "system": "C57B/6 male mice",
  "assay": "Defensive burying (marble burying task)",
  "type": "in vivo",
  "settings": "WT mice; 300 ug/kg IP 30 minutes prior to defensive burying testing; marbles buried more than 2/3 after 30 minutes; N = 6/group; vehicle 46.40%",
  "description": "The usefulness of alpha-2B receptor agonists in treating compulsive disorders are exemplified in a widely-used rodent model of compulsive behavior, the marble burying task. Absence of alpha2B receptor activity, either following treatment with an alpha2B receptor antagonist or in alpha2B receptor knockout mice, results in increased compulsive behavior in the marble burying task. […] Two alpha2B agonists used by the inventors, each belonging to a different compound class, are: Compound A, an imidazole thione, and Compound B, an imidazole amine.\nDefensive burying: C57B/6 male mice (25-30 g) individually placed into plexiglass mouse cages filled with standard mouse bedding in their housing room. Each cage contained 7 small marbles (diameter 1 cm) and 7 larger marbles (diameter 1.5 cm). Mice remained in the cages for 30 minutes, after which time they were removed from their home cage and the number of marbles buried more than ⅔ was counted. Animals in treatment groups (Table 3) were administered compound IP (1 ml/kg) 30 min prior to testing.\nFor Table 2, data were evaluated by One-way ANOVA for overall effect of genotype [F(4,57)=4.155; P=0.0053]. Because the 2B WT is the only control for the 2B KO, an unpaired T-test was used to compare differences between 2B WT and 2B KO. For Table 3, data were evaluated by unpaired T-Test.",
  "note": "Marks after values point to notes of the source that are not given here.",
  "data": [
    {"compound": "CN1CCc2c(C#N)c(N)n(C)c(=S)c2C1", "note": "[Compound C]", "values": [
      {"measurement": "% Buried", "result": 61.90, "unit": "%**"}
    ]}
  ]
}
